Data as given in US7511074B2, “Tetrafluorobenzyl derivatives and pharmaceutical composition for preventing and treating acute and chronic neurodegenerative diseases in central nervous system containing the same” (AmKor Pharma, Inc., priority 2002, dated 2009).

How the values were obtained:
[1] = test system: Mouse cortical cell cultures; assay: FeCl2-induced free radical neurotoxicity in mixed cortical cell cultures (LDH assay); assay type: cell-based; settings: continuous 50 μM FeCl2; LDH 24 hr later
Protocol: (§1) Mouse cortical cell cultures (DIV 12-14) were exposed to continuously to 50 μM Fe^2+, alone or with inclusion of 0.1-100 μM 2-Hydroxy-TTBA (●) or trolox (◯), a membrane-permeable form of vitamin E). Neuronal death was analyzed 24 hr later by measuring levels of LDH released into the bathing medium, mean ±SEM (n=9-12 culture wells per condition), scaled to mean LDH efflux value 24 hr after sham wash (=0) and continuous exposure to 500 μM NMDA (=100). *, Significant difference from the vehicle control, p<0.05 using ANOVA and Student-Neuman-Keuls' test.
as §1, with “alone (♦)” for “alone”, “1-30” for “0.1-100”, “2-Hydroxy-TTS (●), 2-Hydroxy-TTA (◯), 2-Chloro-TTP (▾), 2-Ethan-TTBA (∇), 2-Propan-TTBA (▪),” for “2-Hydroxy-TTBA (●)”, “2-Cyclohexan-TTBA (□).” for “trolox (◯), a membrane-permeable form of vitamin E).”
For mixed neuron-glia culture, mouse cerebral cortices were removed from brains of the 14-16 day-old-fetal mice (E14-16), gently triturated and plated on 24 well plates (2×10^5 cells/plate) precoated with 100 μg/ml poly-D-lysine and 4 μg/ml laminine. Cultures were maintained at 37° C. in a humidified 5% CO2 atmosphere. Plating media consist of Eagles minimal essential media (MEM, Earles salts, supplied glutamine-free) supplemented with 5% horse serum, 5% fetal bovine serum, 26.5 mM bicarbonate, 2 mM glutamine, and 21 mM glucose.
After 7-8 days in vitro (DIV 7-8), 10 μM cytosine arabinofuranoside (Ara-C) was included to halt overgrowth of glia. The drug treatment was carried on DIV 12-15 cortical cell culture. Overall neuronal cell injury was assessed by measuring amount of lactate dehydrogenase (LDH) released into the bathing medium 24 hr after neurotoxic insults as previously described [Koh and Choi, J Neurosci Methods 20:83-90, 1987].
Mixed cortical cell cultures (DIV 13-15) were continuously exposed to 50 μM FeCl2, which produces hydroxyl radical via a Fenton reaction, alone or with inclusion of 2-Hydroxy-TTBA, 2-Hydroxy-TTA, 2-Hydroxy-TTS, 2-Chloro-TTP, 2-Ethan-TTBA, 2-Propan-TTBA, 2-Cyclohexan-TTBA or trolox (a vitamin E analogue) at indicated doses. Neuronal cell death was analyzed 24 hr later by LDH assay as described above. *, Significant difference from the vehicle control (FeCl2), p<0.05 using ANOVA and Student-Neuman-Keuls' test.

[2] = DPPH free radical scavenging assay; assay type: biochemical; settings: 100 μM DPPH in ethanol; absorption at 517 nm; 1-100 μM
Protocol: 2-Hydroxy-TTBA (●) or trolox (◯) was reacted with 100 uM 1,1-diphenyl-2-picrylhydrazil (DPPH, a stable free radical) dissolved in ethanol for […]. The radical scavenging activity was determined by measuring the decrease in DPPH levels at 517 nm. *, Significant difference from the vehicle control, p<0.05 using ANOVA and Student-Neuman-Keuls' test.
2-Hydroxy-TTS (●), 2-Hydroxy-TTA (◯), 2-Chloro-TTP (▾) or control (∇) was reacted with 100 uM DPPH dissolved in ethanol. The radical scavenging activity was determined by measuring the decrease in DPPH levels at 517 nm. *, Significant difference from the vehicle control, p<0.05 using ANOVA and Student-Neuman-Keuls' test.
To examine the free radical scavenging effects, 1-100 μM 2-Hydroxy-TTBA, 2-Hydroxy-TTA, 2-Hydroxy-TTS, 2-Chloro-TTP or trolox was reacted with 100 μM DPPH (2,2-diphenyl-1-picryl-hydrazyl radical), a stable free radical, dissolved in ethanol. After incubation for 30 min, relative decrease in DPPH absorption at 517 nm was measured by a spectrophotometer, mean ±SEM (n=3 test tubes per condition). *, Significant difference from the vehicle control (DPPH alone), p<0.05 using ANOVA and Student-Neuman-Keuls' test.

[3] = test system: Sprague-dawley rats, four-vessel occlusion; assay: CA1 neuronal cell death after transient forebrain ischemia; assay type: in vivo, rat; settings: 50 mg/kg ip; 10 min four-vessel occlusion; analyzed 3 d later
Protocol: Adult rats received transient global ischemia for 10 min, with intraperitoneal injections of vehicle (control) or 2-Hydroxy-TTBA (50 mg/kg) at 5 min after reperfusion. The number of degenerating neurons in the CA1 was analyzed 3 d later by counting viable neurons after staining with cresyl violet, mean ±S.E.M. *, Significant difference from the vehicle control, p<0.05 using the independent t-test.
Male adult Sprague-dawley rats (250-300 g) were anesthetized with chloral hydrate and subjected to four-vessel occlusion model (occlusion of both common carotid arteries and vertebral arteries) as previously described [Pulsinelli and Brierley, stroke 10: 267-272 (1979)].
Rats received four-vessel occlusion for 10 min followed by administration of saline (control) or 2-Hydroxy-TTBA (50 mg/kg, ip). Animals were euthanized 3 d later and processed for analysis of neuronal death in the CA1 field after staining with hematoxylin and eosin(mean ±SEM, N=12 rats/condition).

O=C(O)c1cc(NCc2c(F)c(F)c(C(F)(F)F)c(F)c2F)ccc1O [2-Hydroxy-TTBA, 2-hydroxy-5-(2,3,5,6-tetrafluoro-4-trifluoromethylbenzylamino)benzoic acid]
prevention of FeCl2-induced free radical neurotoxicity [1]: prevented FeCl2-induced free radical neurotoxicity in a dose-dependent manner
strength relative to trolox in preventing free radical neurotoxicity [1]: 30 fold
reduction of DPPH levels [2]: reduced levels of DPPH at lower doses
delayed neuronal cell death in the CA1 areas [3]: prevented delayed neuronal cell death
